The test system of one series is MV-4-11 cell. Briefly: In vitro cytology inhibitory activity (MV-4-11 cell proliferation, cell viability luminescence). Type of series: cell-based. Particulars: Homo sapiens, MV4-11; MV-4-11 cells, 72 h incubation. The protocol:
Cell assay condition was shown below:
a. A complete medium was prepared and mixed well. b. Cell was recovered, and cell lines of between about two generations in good condition of growth were selected. c. The cell culture flasks were removed from the incubator, and the labeled cell name on the bottles, culture medium type and cell algebra were checked. d. The cell suspension was pipette into a centrifuge tube, and centrifuged at 800-1000 rpm for 3-5 minutes. e. Cell supernatant of the centrifuge tube was aspirated. f. Appropriate volume of culture medium was added into the centrifuge tube, and the cells were resuspended by gentle pipetting uniform. g. Vi-Cell XR cytometer was used for count. h. The cell suspension was adjusted to the appropriate concentration. i. The cell suspension was added to the bottom wall of the white 96-well plate, 100 microliters/well. Cells name, kind of board density and date were detailed labeled, and the culture plate was placed in CO2 incubator overnight.
2. Preparation and Addition of the Test Compounds
i) Preparation of test compound plates by diluting to 10 concentrations with DMSO: first, the test compound stock solution was prepared by dissolving a weighed compound in DMSO to a concentration of 10 mM, and then diluted to the concentration of 4 mM, which was then diluted to the concentration of 0.4 mM used as the highest concentration for testing with DMSO. The highest concentration was sequentially followed by 3-fold dilution for a total of 10 concentrations. Staurosporine was the positive control drug. ii) Addition of test compounds: a. 0.5 μL of test compound prepared above in compound plate was added into the cell culture plate that had been incubated overnight. Then the culture plate was incubated in an incubator at 37° C. for 72 hours.
3. Detection and Analysis
a. 72 hours after the compound treatment, cells was observed under an inverted microscope morphology, and cell growth state in DMSO control well was normal, there was no contamination. b. The cell culture plate was placed in equilibrium at room temperature for 30 minutes. c. The cell viability detection reagent at 100 μL/well was placed into culture plate. d. The mixture in culture plate was mixed two minutes in the vibration plate machine to induce cell lysis. e. 96-well plate was placed for 10 minutes at room temperature, making it stable luminescent signal. f. White base film was pasted on the bottom of the culture plate, and the plate was tested by using Flexstation3 (related to: light, integration time 500 ms). g. Experimental results were recorded and analyzed.

The next series has as its target T1, FLT3 kinase (Homo sapiens, UniProt P36888).
T1 sequence (P36888 27-993): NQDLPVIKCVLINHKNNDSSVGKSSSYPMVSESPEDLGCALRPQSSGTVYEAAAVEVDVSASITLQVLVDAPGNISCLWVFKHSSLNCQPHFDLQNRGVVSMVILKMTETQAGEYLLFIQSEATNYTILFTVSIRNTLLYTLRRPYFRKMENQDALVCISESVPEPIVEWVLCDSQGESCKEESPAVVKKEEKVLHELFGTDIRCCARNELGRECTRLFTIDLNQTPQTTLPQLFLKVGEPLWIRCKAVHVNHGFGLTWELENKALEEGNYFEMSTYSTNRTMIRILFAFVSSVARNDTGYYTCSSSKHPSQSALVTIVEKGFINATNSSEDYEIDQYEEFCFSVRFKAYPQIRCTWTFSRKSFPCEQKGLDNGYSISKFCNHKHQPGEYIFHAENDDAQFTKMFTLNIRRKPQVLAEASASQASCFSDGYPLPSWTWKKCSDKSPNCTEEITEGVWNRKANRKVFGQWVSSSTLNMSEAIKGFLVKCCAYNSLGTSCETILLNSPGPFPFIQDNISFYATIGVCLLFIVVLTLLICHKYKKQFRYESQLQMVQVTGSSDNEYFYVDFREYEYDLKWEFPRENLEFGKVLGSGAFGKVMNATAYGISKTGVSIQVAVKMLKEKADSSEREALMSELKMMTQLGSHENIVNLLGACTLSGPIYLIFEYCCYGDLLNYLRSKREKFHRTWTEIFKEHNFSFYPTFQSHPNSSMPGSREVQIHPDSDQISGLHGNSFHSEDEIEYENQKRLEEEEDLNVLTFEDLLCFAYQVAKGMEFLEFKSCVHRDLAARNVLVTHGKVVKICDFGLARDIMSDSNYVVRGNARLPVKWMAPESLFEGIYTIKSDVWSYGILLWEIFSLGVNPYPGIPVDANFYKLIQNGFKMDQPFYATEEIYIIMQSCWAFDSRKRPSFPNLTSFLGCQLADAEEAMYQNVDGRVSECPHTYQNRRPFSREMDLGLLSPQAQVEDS
Briefly: In vitro enzymatic inhibitory activity (kinase reaction, FAM-labeled peptide). Type of series: biochemical. Particulars: in vitro enzymatic inhibition.

Series [1] is described as follows: Evaluation of pharmacokinetic activity in male SD rats (iv and oral). In kind it is in vivo. The following applies: rat, plasma; for Cmax: read-out: Cmax. As to the method: 1. Preparation of the Test Compound Solutions
The test compound solutions were prepared using appropriate amounts of 5% DMSO, 5% KolliphorHS15 and 90% Saline to dissolve each compound completely.
140-190 g male SD rats were randomly divided into two groups. One group was administered through intravenous drug delivery with the dosage of 1.0 or 2.0 mg/kg, and the other group was administered by oral with the dosage of 5.0 mg/kg. For intravenous administration, caudal vein blood samples at the time points of 0.0833, 0.25, 0.5, 1.0, 2.0, 4.0, 6.0, 8.0 and 24 h were collected after drug administration (the time point of drug administration was set as 0 h); and for oral administration, caudal vein blood samples at the time points of 0.25, 0.5, 1.0, 2.0, 4.0, 6.0, 8.0 and 24 h were collected after drug administration (the time point of drug administration was set as 0 h). Appropriate range of standard curve was established according to the sample concentration, and the test compound concentrations in plasma sample were measured by LC-MS/MS analysis. Pharmacokinetic parameters were calculated by non-compartmental method using WinNonLin 6.3 software based on drug concentration-time curves.

Like-named read-outs stand apart in the source and are kept apart here.

In general, IC50 refers to the concentration at which inhibition is half-maximal. A low value points to inhibition by little substance. Compound `CC(C)(C)c1cc(NC(=O)Nc2ccc(C#Cc3ccc(OCCC[N+]4([O-])CCOCC4)cc3F)cc2)no1` [Example 83, 4-(3-(4-((4-(3-(5-(tert-Butyl)isoxazol-3-yl)ureido)phenyl)ethynyl)-3-fluorophenoxy)propyl) morpholine 4-oxide] showed an IC50 in the series with MV-4-11 cell of 2.3 nM.

Compound `CC(C)(C)c1cc(NC(=O)Nc2ccc(C#Cc3ccc(OCCCN4CCC5(COC5)C4)cc3)cc2)no1` [Example 19, 1-(4-((4-(3-(2-Oxa-6-azaspiro[3.4]octan-6-yl)propoxy)phenyl)ethynyl)phenyl)-3-(5-(tert-butyl)isoxazol-3-yl)urea] came in with an IC50 with MV-4-11 cell of 13.8 nM. As to `CC(C)(C)c1cc(NC(=O)Nc2ccc(C#Cc3ccc(OCCCN4CCOCC4)c(F)c3)cc2)no1` [Example 1, 1-(5-(tert-Butyl)isoxazol-3-yl)-3-(4-((3-fluoro-4-(3-morpholinopropoxy)phenyl)ethynyl)phenyl)urea], the IC50 on FLT3 kinase was determined as 115 nM. In the case of `CC(C)(C)c1cc(NC(=O)Nc2ccc(C#Cc3ccc(OCCCN4CCOCC4)cc3Cl)cc2)no1` [Example 5, 1-(5-(tert-Butyl)isoxazol-3-yl)-3-(4-((2-chloro-4-(3-morpholinopropoxy)phenyl)ethynyl)phenyl)urea], the IC50 against FLT3 kinase turned out to be 189 nM. On to `COc1cc(C#Cc2ccc(NC(=O)Nc3cc(C(C)(C)C)on3)cc2)ccc1OCCCN1CCOCC1` [Example 20, 1-(5-(tert-Butyl)isoxazol-3-yl)-3-(4-((3-methoxy-4-(3-morpholinopropoxy)phenyl)ethynyl)phenyl)urea], for which, on FLT3 kinase, the IC50 turned out to be 110 nM.

With `CC(C)(C)c1cc(NC(=O)Nc2ccc(C#Cc3ccc(OCCCN4CCOCC4)cc3)cc2O)no1` [Example 87, 1-(5-(tert-butyl)isoxazol-3-yl)-3-(2-hydroxy-4-((4-(3-morpholinopropoxy)phenyl)ethynyl)phenyl)urea], in the series with MV-4-11 cell, the half-inhibitory concentration (IC50) stood at 25.5 nM. The compound `CC(C)(CO)c1cc(NC(=O)Nc2ccc(C#Cc3ccc(OCCC[N+]4([O-])CCOCC4)cc3)cc2)no1` [Example 88, 4-(3-(4-((4-(3-(5-(1-Hydroxy-2-methylpropan-2-yl)isoxazol-3-yl)ureido)phenyl)ethynyl)phenoxy)propyl)morpholine 4-oxide] yielded an IC50 in the series with MV-4-11 cell of 1.8 nM. The term AUC(0-inf) denotes the area under the concentration-time curve extrapolated to infinity. Read a high AUC(0-inf) as high exposure. By AUC(0-t) is commonly meant exposure summed from dosing to a finite time, without extrapolation to infinity. Low values mean low exposure, high ones high exposure. The Tmax is the time from dosing to the highest level. A word on the half-life: it is how long it takes for the measured level to halve. A higher half-life goes with slow loss. A word on the Cmax: it is the highest concentration seen after dosing. As to `CC(C)(C)c1cc(NC(=O)Nc2ccc(C#Cc3cnc4c(OCCN5CCOCC5)ccnn34)cc2)no1` [Example 9, 1-(5-(tert-Butyl)isoxazol-3-yl)-3-(4-((8-(2-morpholinoethoxy)imidazo[1,2-b]pyridazin-3-yl)ethynyl)phenyl)urea], in series [1] (iv, 1 mg/kg), the AUC(0-inf) was 1390 ng·h/mL, the area under the curve AUC(0-t) was 1330 ng·h/mL, the Tmax worked out at 0.083 h and the half-life is 1.7 h. The Cmax in series [1] (iv, 1 mg/kg) was 793 ng/mL. For the same compound, the Vd in series [1] (iv, 1 mg/kg, read-out: Vss) is 1.62 L/kg. In series [1] (po 5 mg/kg vs iv 1 or 2 mg/kg), the bioavailability came out at 116%. In addition, in series [1] (po, 5 mg/kg), the AUC(0-inf) turned out to be 8030 ng·h/mL, the AUC(0-t) amounted to 8010 ng·h/mL, the Tmax stood at 2.67 h and the half-life is 2.85 h. Also, the Cmax in series [1] (po, 5 mg/kg) came to 1090 ng/mL.

Regarding `CC(C)(C)c1cc(NC(=O)Nc2ccc(C#Cc3cnc4ccc(OCCCN5CCOCC5)nn34)cc2)no1` [Example 7, 1-(5-(tert-Butyl)isoxazol-3-yl)-3-(4-((6-(3-morpholinopropoxy)imidazo[1,2-b]pyridazin-3-yl)ethynyl)phenyl)urea], it took 3.2 nM to reach half-maximal inhibition in the series on MV-4-11 cell (IC50).

Compound `CC(C)(C)c1cc(NC(=O)Nc2ccc(C#Cc3ccc(OCCCN4CCOCC4)cc3)cc2)no1` [Example 21, 1-(5-(tert-Butyl)isoxazol-3-yl)-3-(4-((4-(3-morpholinopropoxy)phenyl)ethynyl)phenyl)urea] displayed an IC50 in the series on MV-4-11 cell of 2.8 nM. Regarding `CC(C)(CO)c1cc(NC(=O)Nc2ccc(C#Cc3ccc(OCCC[N+]4([O-])CCOCC4)cc3F)cc2)no1` [Example 89, 4-(3-(3-Fluoro-4-((4-(3-(5-(1-hydroxy-2-methylpropan-2-yl)isoxazol-3-yl)ureido)phenyl)ethynyl)phenoxy)propyl)morpholine 4-oxide], the half-maximal inhibitory concentration (IC50) with MV-4-11 cell was determined as 4.8 nM. For `CC(C)(CO)c1cc(NC(=O)Nc2ccc(C#Cc3ccc(OCCCN4CCOCC4)cc3F)cc2)no1` [Example 85, 1-(4-((2-Fluoro-4-(3-morpholinopropoxy)phenyl)ethynyl)phenyl)-3-(5-(1-hydroxy-2-methylpropan-2-yl)isoxazol-3-yl)urea], the IC50 in the series on MV-4-11 cell amounted to 1.6 nM.

As to `CC(C)(C)c1cc(NC(=O)Nc2ccc(C#Cc3ccc(OCCCN4CCOCC4)c(C(F)(F)F)c3)cc2)no1` [Example 3, 1-(5-(tert-Butyl)isoxazol-3-yl)-3-(4-((4-(3-morpholinopropoxy)-3-(trifluoromethyl)phenyl)ethynyl)phenyl)urea], the IC50 against FLT3 kinase came out at 62 nM. In the series on MV-4-11 cell, `CC(C)(C)c1cc(NC(=O)Nc2ccc(C#Cc3ccc(OCCCN4CCOCC4)c(O)c3)cc2)no1` [Example 86, 1-(5-(tert-Butyl)isoxazol-3-yl)-3-(4-((3-hydroxy-4-(3-morpholinopropoxy)phenyl)ethynyl)phenyl)urea] registered a concentration for half-maximal inhibition (IC50) of 0.9 nM. `CC(C)(CO)c1cc(NC(=O)Nc2ccc(C#Cc3ccc(OCCCN4CCOCC4)cc3)cc2)no1` [Example 84, 1-(5-(1-Hydroxy-2-methylpropan-2-yl)isoxazol-3-yl)-3-(4-((4-(3-morpholinopropoxy)phenyl)ethynyl)phenyl)urea]: in the series with MV-4-11 cell, the IC50 worked out at 2.1 nM.

For `CC(C)(C)c1cc(NC(=O)Nc2ccc(C#Cc3ccc(OCCC[N+]4([O-])CCOCC4)cc3)cc2)no1` [Example 82, 4-(3-(4-((4-(3-(5-(tert-Butyl)isoxazol-3-yl)ureido)phenyl)ethynyl)phenoxy)propyl)morpholine 4-oxide], the IC50 in the series with MV-4-11 cell turned out to be 3 nM. On to `CC(C)(C)c1cc(NC(=O)Nc2ccc(C#Cc3ccc(OCCCN4CCOCC4)cc3)cc2F)no1` [Example 81, 1-(5-(tert-Butyl)isoxazol-3-yl)-3-(2-fluoro-4-((4-(3-morpholinopropoxy)phenyl)ethynyl)phenyl)urea], for which, in the series with MV-4-11 cell, the IC50 is 4.7 nM.

As to `CC(C)(C)c1cc(NC(=O)Nc2ccc(C#Cc3ccc(OCCCN4CCOCC4)nc3)cc2)no1` [Example 17, 1-(5-(tert-Butyl)isoxazol-3-yl)-3-(4-((6-(3-morpholinopropoxy)pyridin-3-yl)ethynyl)phenyl) urea], half-maximal inhibition in the series on MV-4-11 cell (IC50) was put at 11.7 nM.

Values taken from US10065934B2, “Substituted urea derivatives and pharmaceutical uses thereof” (SUNSHINE LAKE PHARMA CO., LTD., priority 2014, dated 2018).
